Experimental data: US20110251160A1 (priority 2008, published 2011)
Where “and” joins values, the source holds several entries; their conditions need not be identical. Identical values can stand only once. Like-named read-outs stand apart in the source and are kept apart here.

Tests used:
[1] = test system: activated partial thromboplastin time (aPTT), ecarin clotting time, and thrombin clotting time; experiment: Clotting time prolongation
Plasma protein binding = type: in vitro ADME; conditions: read-out: Bound to plasma proteins
[2] = test system: patients with atrial fibrillation at risk of stroke; conditions: for Stroke, systemic embolism, pulmonary embolism, myocardial infarction death or major bleed, Rate / Stroke, systemic embolism, pulmonary embolism, myocardial infarction death or major bleed, RR: net benefit
Text: Median follow-up was 2.0 years and the primary outcome was stroke or systemic embolism.
Patients were recruited from 951 clinical centers in 44 countries. In brief, patients were eligible if they had atrial fibrillation documented on electrocardiogram at screening or within 6 months; and at least one of the following: prior stroke or transient ischemic attack; left ventricular ejection fraction less than 40%; New York Heart Association heart failure symptoms of Class 2 or greater within 6 months; age at least 75 years; or age at least 65 years with diabetes mellitus, hypertension or coronary artery disease.
The time in therapeutic range was calculated by the method of Rosendaal (Rosendaal F R, et al., A method to determine the optimal intensity of oral anticoagulant therapy, Thromb Haemost, 1993, 69:236-239), excluding INRs from the first week and after discontinuations. […] Concomitant use of aspirin (less than 100 mg/day) or other antiplatelet agents was allowed.
Liver function testing was performed monthly during the first year of follow-up.
The primary study outcome was stroke or systemic embolism. The primary safety outcome was major hemorrhage. Secondary outcomes were stroke, systemic embolism and death. Other outcomes were myocardial infarction, pulmonary embolism, transient ischemic attacks, and hospitalizations. The primary net benefit-risk outcome was the composite of stroke, systemic embolism, pulmonary embolism, myocardial infarction, death or major hemorrhage. Stroke was defined as sudden onset of focal neurological deficit consistent with the territory of a major cerebral artery and categorized as ischemic, hemorrhagic or unspecified. Hemorrhagic transformation of ischemic stroke was not considered as hemorrhagic stroke. Intracranial hemorrhage included hemorrhagic stroke and sub-dural or sub-arachnoid hemorrhage. Systemic embolism was an acute vascular occlusion of an extremity or organ documented by imaging, surgery or autopsy. Major bleeding was defined as a reduction in hemoglobin level of at least […] or transfusion of at least 2 units of blood or symptomatic bleeding in a critical area or organ. Life-threatening bleeding was a subset of major bleeding that included fatal bleeding, symptomatic intracranial bleeding, bleeding with hemoglobin decrease of more than […] or requiring transfusion of more than 4 units of blood or requiring inotropic agents or necessitating surgery. All other bleeding was considered minor.
All primary and secondary outcome events were blindly and doubly adjudicated. An international team of adjudicators reviewed documents in local languages after blinding; or documents were translated by a independent group and blinded centrally. All transient ischemic attacks were reviewed to ensure that strokes had not been missed. To detect possible unreported events, symptom questionnaires were regularly administered to patients, and adverse events and hospitalization reports were scrutinized for unreported primary or secondary outcomes.
If maximum of the two p-values was greater than 0.025, the minimum of the two p-values must be less than 0.0125, one-sided, to claim statistical significance. All analyses were based on intention-to-treat.

[3] = in vivo; cited from earlier work
[4] = Clinical pharmacokinetics and pharmacodynamics of dabigatran etexilate; conditions: human, plasma, oral
[5] = test system: patients with chronic atrial fibrillation; experiment: PETRO study, phase 2 12-week dose finding study; type: in vivo, human; conditions: in vivo
Text: Primary endpoints were bleeding events and changes in D-dimer. […] Minor bleeding was dose related.

[6] = test system: patients with atrial fibrillation
Procedure: PETRO-Ex began while the PETRO study was ongoing and investigators were initially kept blinded to patient treatment group until PETRO was completed. Unblinding investigators to patient treatment was possible thereafter.
Data were summarized descriptively; no hypothesis was to be tested. Events were analyzed on the basis of the treatment at onset. Incidences were reported as number of patients with events as well as normalized to 100 patient years on the respective treatment.
Patients who completed PETRO on 50 mg b.i.d. were switched to 150 mg q.d. upon entry in the PETRO-Ex study (N=93 patients). […] Patients who were down titrated to 50 mg q.d. based on a glomerular filtration rate ≦50 mL/min during PETRO were excluded from the long-term trial; patients down-titrated in other dose levels remained on the q.d. treatment at that dose.
The former is represented by the number of thromboembolic events per 100 years, the latter by the number of bleeding events per 100 years.

[7] = individual patients with LFT abnormalities, one table line per patient

SMILES: [H]/N=C(/N)c1ccc(NCc2nc3cc(C(=O)N(CCC(=O)O)c4ccccn4)ccc3n2C)cc1 [Dabigatran]
- Prolongation of aPTT, ecarin clotting time, and thrombin clotting time [1]: dose dependent prolongation
- fraction unbound (Plasma protein binding): 0.65 to 0.75
- All Death, Rate ([2]; Dabigatran 110 mg b.i.d.): 3.74 /100 Person Years
- Disabling or Fatal Stroke Modified Rankin 3-6, Rate ([2]; Dabigatran 110 mg b.i.d.): 0.95 /100 Person Years
- First Hospitalization, Rate ([2]; Dabigatran 110 mg b.i.d.): 25.1 /100 Person Years
- Myocardial Infarction, Rate ([2]; Dabigatran 110 mg b.i.d.): 0.73 /100 Person Years
- Non-disabling Stroke Modified Rankin 0-2, Rate ([2]; Dabigatran 110 mg b.i.d.): 0.51 /100 Person Years
- Pulmonary embolism, Rate ([2]; Dabigatran 110 mg b.i.d.): 0.12 /100 Person Years
- Stroke or systemic embolism, Rate ([2]; Dabigatran 110 mg b.i.d.): 1.55 /100 Person Years
- Stroke, Hemorrhagic, Rate ([2]; Dabigatran 110 mg b.i.d.): 0.12 /100 Person Years
- Stroke, Rate ([2]; Dabigatran 110 mg b.i.d.): 1.45 /100 Person Years
- Vascular Death, Rate ([2]; Dabigatran 110 mg b.i.d.): 2.42 /100 Person Years
- All Death, RR ([2]; Dabigatran 110 mg vs. Warfarin): 0.90
- Disabling or Fatal Stroke Modified Rankin 3-6, RR ([2]; Dabigatran 110 mg vs. Warfarin): 0.94
- First Hospitalization, RR ([2]; Dabigatran 110 mg vs. Warfarin): 0.92
- Myocardial Infarction, RR ([2]; Dabigatran 110 mg vs. Warfarin): 1.35
- Non-disabling Stroke Modified Rankin 0-2, RR ([2]; Dabigatran 110 mg vs. Warfarin): 0.87
- Pulmonary embolism, RR ([2]; Dabigatran 110 mg vs. Warfarin): 1.26
- Stroke or systemic embolism, RR ([2]; Dabigatran 110 mg vs. Warfarin): 0.91
- Stroke, Hemorrhagic, RR ([2]; Dabigatran 110 mg vs. Warfarin): 0.31
- Stroke, Ischemic or Unspecified, RR ([2]; Dabigatran 110 mg vs. Warfarin): 1.12
- Stroke, RR ([2]; Dabigatran 110 mg vs. Warfarin): 0.92
- Vascular Death, RR ([2]; Dabigatran 110 mg vs. Warfarin): 0.90
- All Death, Rate ([2]; Dabigatran 150 mg b.i.d.): 3.63 /100 Person Years
- Disabling or Fatal Stroke Modified Rankin 3-6, Rate ([2]; Dabigatran 150 mg b.i.d.): 0.67 /100 Person Years
- First Hospitalization, Rate ([2]; Dabigatran 150 mg b.i.d.): 26.7 /100 Person Years
- Myocardial Infarction, Rate ([2]; Dabigatran 150 mg b.i.d.): 0.74 /100 Person Years
- Non-disabling Stroke Modified Rankin 0-2, Rate ([2]; Dabigatran 150 mg b.i.d.): 0.36 /100 Person Years
- Pulmonary embolism, Rate ([2]; Dabigatran 150 mg b.i.d.): 0.15 /100 Person Years
- Stroke or systemic embolism, Rate ([2]; Dabigatran 150 mg b.i.d.): 1.11 /100 Person Years
- Stroke, Hemorrhagic, Rate ([2]; Dabigatran 150 mg b.i.d.): 0.10 /100 Person Years
- Stroke, Ischemic or Unspecified, Rate ([2]; Dabigatran 150 mg b.i.d.): 0.92 /100 Person Years
- Stroke, Rate ([2]; Dabigatran 150 mg b.i.d.): 1.01 /100 Person Years
- Vascular Death, Rate ([2]; Dabigatran 150 mg b.i.d.): 2.27 /100 Person Years
- All Death, RR ([2]; Dabigatran 150 mg vs. 110 mg): 0.97
- Disabling or Fatal Stroke Modified Rankin 3-6, RR ([2]; Dabigatran 150 mg vs. 110 mg): 0.70
- First Hospitalization, RR ([2]; Dabigatran 150 mg vs. 110 mg): 1.06
- Myocardial Infarction, RR ([2]; Dabigatran 150 mg vs. 110 mg): 1.02
- Non-disabling Stroke Modified Rankin 0-2, RR ([2]; Dabigatran 150 mg vs. 110 mg): 0.71
- Pulmonary embolism, RR ([2]; Dabigatran 150 mg vs. 110 mg): 1.27
- Stroke or systemic embolism, RR ([2]; Dabigatran 150 mg vs. 110 mg): 0.72
- Stroke, Hemorrhagic, RR ([2]; Dabigatran 150 mg vs. 110 mg): 0.85
- Stroke, Ischemic or Unspecified, RR ([2]; Dabigatran 150 mg vs. 110 mg): 0.68
- Stroke, RR ([2]; Dabigatran 150 mg vs. 110 mg): 0.70
- Vascular Death, RR ([2]; Dabigatran 150 mg vs. 110 mg): 0.94
- All Death, RR ([2]; Dabigatran 150 mg vs. Warfarin): 0.88
- Disabling or Fatal Stroke Modified Rankin 3-6, RR ([2]; Dabigatran 150 mg vs. Warfarin): 0.66
- First Hospitalization, RR ([2]; Dabigatran 150 mg vs. Warfarin): 0.97
- Myocardial Infarction, RR ([2]; Dabigatran 150 mg vs. Warfarin): 1.38
- Non-disabling Stroke Modified Rankin 0-2, RR ([2]; Dabigatran 150 mg vs. Warfarin): 0.62
- Pulmonary embolism, RR ([2]; Dabigatran 150 mg vs. Warfarin): 1.61
- Stroke or systemic embolism, RR ([2]; Dabigatran 150 mg vs. Warfarin): 0.66
- Stroke, Hemorrhagic, RR ([2]; Dabigatran 150 mg vs. Warfarin): 0.26
- Stroke, Ischemic or Unspecified, RR ([2]; Dabigatran 150 mg vs. Warfarin): 0.76
- Stroke, RR ([2]; Dabigatran 150 mg vs. Warfarin): 0.64
- Vascular Death, RR ([2]; Dabigatran 150 mg vs. Warfarin): 0.84
- Mortality rate, death from any cause ([2]; dabigatran 110 mg twice daily): 3.74 % per year
- Rate of hemorrhagic stroke ([2]; dabigatran 110 mg twice daily): 0.12 % per year
- Rate of myocardial infarction ([2]; dabigatran 110 mg twice daily): 0.73 % per year
- Rate of net benefit-risk outcome (major vascular events, major bleeding and death) ([2]; dabigatran 110 mg twice daily): 7.37 % per year
- Rate of the primary outcome, stroke or systemic embolism ([2]; dabigatran 110 mg twice daily): 1.55 % per year
- Mortality rate, death from any cause ([2]; dabigatran 150 mg twice daily): 3.63 % per year
- Rate of hemorrhagic stroke ([2]; dabigatran 150 mg twice daily): 0.10 % per year
- Rate of myocardial infarction ([2]; dabigatran 150 mg twice daily): 0.74 % per year
- Rate of net benefit-risk outcome (major vascular events, major bleeding and death) ([2]; dabigatran 150 mg twice daily): 7.22 % per year
- Rate of the primary outcome, stroke or systemic embolism ([2]; dabigatran 150 mg twice daily): 1.11 % per year
- Hepatotoxicity ([2]; human, in vivo): no evidence of hepatotoxicity
- Stroke, systemic embolism, pulmonary embolism, myocardial infarction death or major bleed, Rate ([2]; Dabigatran 110 mg b.i.d.): 7.37 /100 Person Years
- Stroke, systemic embolism, pulmonary embolism, myocardial infarction death or major bleed, RR ([2]; Dabigatran 110 mg vs. Warfarin): 0.92
- Stroke, systemic embolism, pulmonary embolism, myocardial infarction death or major bleed, Rate ([2]; Dabigatran 150 mg b.i.d.): 7.22 /100 Person Years
- Stroke, systemic embolism, pulmonary embolism, myocardial infarction death or major bleed, RR ([2]; Dabigatran 150 mg vs. 110 mg): 0.98
- Stroke, systemic embolism, pulmonary embolism, myocardial infarction death or major bleed, RR ([2]; Dabigatran 150 mg vs. Warfarin): 0.90
- Serum half-life [3]: 12 to 17 h
- half-life [4]: 12 to 17 h
- Change in D-dimer levels [5]: comparable to warfarin
- Fatal major bleeds, number ([6]; 150 mg b.i.d.): 4
- Fatal major bleeds, number ([6]; 300 mg q.d.): 1
- Fatal bleeding events ([6]; all doses): 0.5 % per year
- Fatal major bleeds, number ([6]; all doses): five
- Intracranial bleed rate ([6]; all doses): 0.4 % per year
- LFT abnormality ALT/ULN [6, 7]: >5x xULN (4×) and >5x^# xULN (2×) and >3x xULN (5×) and >3x^# xULN
- LFT abnormality AST/ULN [6, 7]: >5x^# xULN (4×) and >5x xULN (4×) and >3x xULN (5×)
